Reference: patent publication US6821983B2, “5-(9-acridinylamino)-toluidine compounds” (Academia Sinica, priority 2003, dated 2004)
Counter-ions that a name gives are not always drawn.

What was measured:
human tumor cell lines = test: Inhibition of human tumor cell growth in culture (XTT-tetrazolium cytotoxicity assay, 72 h); format: cell-based; conditions: five human tumor cell lines, 72 h incubation; for IC50 values compared with tested known 9-anilinoacridine antitumor compounds: for at least one cell line
Protocol: (§1) Cytotoxicity Assays. The effects of the compounds on cell growth were determined in all human tumor cells (i.e. colon HT-29, nasopharyngeal carcinoma HONE-1 and BM-1, hepatoma Hepa-G2, breast carcinoma MX-1, gastric carcinoma TSGH, brain tumor DBTRG, oral carcinoma KB, breast carcinoma MCF-7 and MX-1, and T-cell acute lymphocytic leukemia CCRF-CEM), in a 72 h incubation, by XTT-tetrazolium assay, as described by Scudiero et al. (Cancer Res. 1988, 48, 4827-4833). After the addition of phenazine methosulfate-XTT solution at 37° C. for 6 h, absorbance at 450 and 630 nm was detected on a microplate reader (EL 340; Bio-Tek Instruments Inc., Winooski, Vt.). Six to seven concentrations of each compound were used. The IC50 and dose-effect relationships of the compounds for antitumor activity were calculated by a median-effect plot (Chou et al. Adv. Enzyme Regul. 1984, 22, 27-55) using a computer program on an IBM-PC workstation (Chou et al. Dose-Effect Analysis with Microcomputers: Quantitation of ED50, LD50, Synergism, Antagonism, Low-Dose Risk, Receptor-Ligands Binding and Enzyme Kinetics; Biosoft: Cambridge, U.K., 1987).

[1] = test system: CCRF-CEM human lymphoblastic leukemic cells and its drug-resistant sublines; test: Growth inhibition of CCRF-CEM cells and drug-resistant sublines (XTT-tetrazolium assay, 72 h); format: cell-based; conditions: for IC50 values compared with tested known 9-anilinoacridine compounds: CCRF-CEM and drug-resistant sublines, 72 h, as the trihydrochloride salt or free amine compounds; for cross-resistance with vinblastine or taxol: CCRF-CEM drug-resistant sublines
Protocol: as §1, with “in CCRF-CEM” for “in all”, “human lymphoblastic leukemic” for “human tumor”, “cells” for “cells (i.e. colon HT-29, nasopharyngeal carcinoma HONE-1”, “and its drug-resistant sublines” for “and BM-1, hepatoma Hepa-G2, breast carcinoma MX-1, gastric carcinoma TSGH, brain tumor DBTRG, oral carcinoma KB, breast carcinoma MCF-7 and MX-1, and T-cell acute lymphocytic leukemia CCRF-CEM),”

[2] = test system: human breast tumor MX-1 xenograft; test: Chemotherapeutic efficacy in nude mice bearing human breast tumor MX-1 xenograft; format: in vivo; conditions: i.v., dosages of 10 mg/Kg or higher
Protocol: In vivo assay. Athymic nude mice bearing the nu/nu gene were used for human breast tumor MX-1 xenograft. Outbred Swiss-background mice were obtained from Charies River Breeding Laboratories. Male mice 8 weeks old or older weighing 22 g or more were used for most experiments. Drug was administrated via the tail vein by i.v. injection. Tumor volumes were assessed by measuring length x width x height (or width) by using caliper. Vehicle used was 20 μl DMSO in 180 μl saline. All animal studies were conducted in accordance with the guidelines of the National Institutes of Health Guide for the Care and Use of Animals and the protocol approved by the Memorial Sloan-Kettering Cancer Center's Institutional Animal Care and Use Committee.

Cc1cc(N)cc(Nc2c3ccccc3nc3ccccc23)c1 (as salt: HCl) [Compound 10, 5-(9-acridinylamino)-m-toluidine]
melting point: > 280 °C (dec.)

{3-[4-(2-dimethylamino ethylcarbamoyl)-5-methyl-acridin-9-ylamino]-2-methyl-phenyl}-carbamic acid ethyl ester [Compound 5]
IC50 values compared with tested known 9-anilinoacridine antitumor compounds (human tumor cell lines): lower than those of tested known 9-anilinoacridine antitumor compounds

CCOC(=O)Nc1cc(Nc2c3cccc(C)c3nc3c(C(=O)NCCN(C)C)cccc23)ccc1C [Compound 6]
IC50 values compared with tested known 9-anilinoacridine antitumor compounds (human tumor cell lines): lower than those of tested known 9-anilinoacridine antitumor compounds | melting point: 131 to 132 °C

Cc1ccc(Nc2c3cccc(C)c3nc3c(C(=O)NCCN(C)C)cccc23)cc1N [Compound 3, 5-[9-(4-dimethylaminoethylcarboxamido-5-methyl)acridinylamino)-p-toluidine hydrochloride]
IC50 values compared with tested known 9-anilinoacridine antitumor compounds (human tumor cell lines): lower than those of tested known 9-anilinoacridine antitumor compounds

Cc1cc(N)cc(Nc2c3cccc(C)c3nc3c(C(=O)NCCN(C)C)cccc23)c1 [Compound 1, 5-[9-(4-dimethylaminoethylcarboxamido-5-methyl)acridinylamino]-m-toluidine hydrochloride]
IC50 values compared with tested known 9-anilinoacridine antitumor compounds (human tumor cell lines): lower than those of tested known 9-anilinoacridine antitumor compounds | IC50 values compared with tested known 9-anilinoacridine compounds [1]: lower than tested known 9-anilinoacridine compounds | cross-resistance with vinblastine or taxol [1]: not cross-resistant | reducing tumor volume [2]: about 80% | toxicity to the host [2]: very low toxicity

Cc1ccc(N)cc1Nc1c2cccc(C)c2nc2c(C(=O)NCCN(C)C)cccc12 [Compound 2, 3-[9-(4-dimethylaminoethylcarboxamido-5-methyl)acridinylamino)-p-toluidine hydrochloride]
largest difference in IC50 versus one of the tested known compounds (human tumor cell lines): 18 fold | IC50 values compared with tested known 9-anilinoacridine antitumor compounds (human tumor cell lines): lower than those of tested known 9-anilinoacridine antitumor compounds | IC50 values compared with tested known 9-anilinoacridine compounds [1]: lower than tested known 9-anilinoacridine compounds | cross-resistance with vinblastine or taxol [1]: not cross-resistant | reducing tumor volume [2]: about 80% | toxicity to the host [2]: very low toxicity

Cc1ccc(Nc2c3cccc(C)c3nc3c(C(=O)NCCN(C)C)cccc23)cc1N (as salt: HCl) [Compound 3, 5-[9-(4-dimethylaminoethylcarboxamido-5-methyl)acridinylamino)-p-toluidine hydrochloride]
melting point: 245 to 246 °C
